Reference: BigSolDB 2.1

Oc1ccccc1/C=N/CC/N=C/c1ccccc1O
solubility (mole fraction)
Settings | in dichloromethane | in diethyl ether | in ethanol | in methanol | in n-hexane | in toluene
268.15 K | 0.0352 | 0.00119 | – | – | – | –
273.15 K | 0.0369 | 0.00136 | – | – | – | –
278.15 K | 0.0408 | 0.00165 | 0.00026 | 0.0003 | – | 0.00947
283.15 K | 0.0469 | 0.00193 | 0.00035 | 0.00036 | – | 0.0115
288.15 K | 0.0533 | 0.00232 | 0.00048 | 0.00049 | 0.00084 | 0.014
293.15 K | 0.0605 | 0.00281 | 0.00069 | 0.00064 | 0.00095 | 0.0164
298.15 K | 0.0696 | 0.0035 | 0.0009 | 0.00081 | 0.00112 | 0.0198
303.15 K | 0.0775 | 0.00455 | 0.00112 | 0.00099 | 0.00127 | 0.0256
308.15 K | – | – | 0.00147 | 0.00125 | 0.00143 | 0.0305
313.15 K | – | – | 0.00199 | 0.00155 | 0.00161 | 0.0379
318.15 K | – | – | 0.00252 | 0.00185 | 0.00186 | 0.047
